Test results: publication PMC4860837, “Structural basis for Sfm1 functioning as a protein arginine methyltransferase” (Cell Discovery, 2015)

Target: T1, Sfm1 (Saccharomyces cerevisiae, UniProt Q12314)
T1 construct: full length, residues 1-213; C-terminal His6 tag (crystal) or N-terminal GST tag (activity assay), E. coli BL21(DE3); monomer
Assay: X-ray crystallography, […] Å
Assay type: binding
Conditions: co-crystallised with SAH ([…] molar ratio), pH […] °C; cofactor pocket of trefoil knot

## Nc1ncnc2c1ncn2[C@@H]1O[C@H](CSCC[C@H](N)C(=O)O)[C@@H](O)[C@H]1O [SAH]
  X-ray crystallography, 2.5 Å: In the SAH-bound Sfm1 structure, SAH is clearly defined in the electron density map
